Like-named read-outs stand apart in the source and are kept apart here.
Tests used:
monkeys = assay: BuTAC-induced emesis and its inhibition by domperidone; assay type: in vivo, Cebus Apella; conditions: BuTAC 0.01 mg/kg alone; observed 300 minutes
Method: S1 Table. Emesis BuTAC / Domperidone
BuTAC 0.01 mg/kg / 1 in 7
Domperidone was purchased from Tocris Bioscience (Bristol, United Kingdom) and dissolved
in 0.9% saline. The compound was administered subcutaneously where after the animals

[1] = biological target: T1, human M5 muscarinic receptor (Homo sapiens, UniProt P08912); design: method as in Watt et al. 2013 [10]; conditions: ref Watt et al. 2013 [10], cited from earlier work
T1 construct: purchased PerkinElmer Life and Analytical Sciences, Boston, MA
T1 sequence (P08912 1-532): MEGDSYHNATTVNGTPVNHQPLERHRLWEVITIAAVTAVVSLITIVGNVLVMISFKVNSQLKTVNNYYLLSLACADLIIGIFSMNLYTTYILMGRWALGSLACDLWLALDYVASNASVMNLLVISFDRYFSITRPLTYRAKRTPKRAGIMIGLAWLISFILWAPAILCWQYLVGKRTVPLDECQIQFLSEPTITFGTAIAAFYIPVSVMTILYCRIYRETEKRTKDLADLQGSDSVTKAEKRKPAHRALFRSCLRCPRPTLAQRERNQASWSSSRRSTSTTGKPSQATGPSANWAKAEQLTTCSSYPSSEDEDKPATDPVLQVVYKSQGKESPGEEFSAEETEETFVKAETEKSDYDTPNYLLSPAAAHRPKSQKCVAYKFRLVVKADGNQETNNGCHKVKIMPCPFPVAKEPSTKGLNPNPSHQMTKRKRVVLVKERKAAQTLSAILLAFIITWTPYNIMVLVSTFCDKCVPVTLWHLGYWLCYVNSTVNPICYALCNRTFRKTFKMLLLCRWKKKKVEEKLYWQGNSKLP

[2] = biological target: T2, human M1 muscarinic receptor (Homo sapiens, UniProt P11229); assay: GTP-γ-[35S] binding, antibody capture SPA (agonist and antagonist mode); assay type: biochemical
T2 construct: purchased PerkinElmer Life and Analytical Sciences, Boston, MA
T2 sequence (P11229 1-460): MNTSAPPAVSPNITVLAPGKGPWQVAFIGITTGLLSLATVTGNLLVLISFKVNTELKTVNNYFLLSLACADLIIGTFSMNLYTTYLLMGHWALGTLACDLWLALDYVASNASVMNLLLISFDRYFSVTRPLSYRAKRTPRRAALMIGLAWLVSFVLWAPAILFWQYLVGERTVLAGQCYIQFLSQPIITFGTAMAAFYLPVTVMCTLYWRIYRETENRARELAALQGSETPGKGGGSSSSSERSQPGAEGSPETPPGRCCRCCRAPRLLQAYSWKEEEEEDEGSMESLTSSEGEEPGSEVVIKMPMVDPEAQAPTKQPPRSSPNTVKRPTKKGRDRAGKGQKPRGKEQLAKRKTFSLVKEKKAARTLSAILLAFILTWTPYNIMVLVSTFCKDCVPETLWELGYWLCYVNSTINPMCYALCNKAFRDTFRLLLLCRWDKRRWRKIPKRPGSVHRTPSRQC
Method: (§1) The antibody capture scintillation proximity technique previously described by DeLapp et al was used in a 96-well plate to determine GTP-γ-[35S] binding. One hundred μl (20–40 fmol/well) of membrane preparation from CHO cells that stably express the human M1-M5 muscarinic receptors (PerkinElmer Life and Analytical Sciences, Boston, MA) were incubated with varying concentration of test compound (final concentrations from 50pM to 1μM) for 30 min. One μM final concentration of GDP was added to M2 and M4 receptor membranes before incubation. […] (500 pM final concentration; Perkin Elmer Life and Analytical Sciences) was added to each well followed by 30 min of incubation. […] An anti-Gαq/11 antibody was used for the M1-, M3-, and M5 membranes, whereas an anti-Gαi-3 antibody was used for the M2- and M4 membranes (Eli Lilly and Company, Indianapolis, IN). […] By use of a Wallac MicroBeta TriLux scintillation counter (PerkinElmer), the plates were centrifuged for 10 min at 700 × g and counted for 1 min per well. The incubations took place at room temperature in GTP-binding assay buffer (20 mM Hepes, 100 mm NaCl, 5 mM MgC12, pH 7.4). The data were analyzed by use of nonlinear regression for a sigmoidal concentration response curve (GraphPad Prism v. 4.0). Data were normalized to a full agonist response (100 μM oxotremorine-M). […] The antagonist percent inhibition data were normalized to data generated with an EC90 concentration of acetylcholine. The mean relative EC50, IC50, and %Emax, and pKi values were calculated as a mean of at least three independent experiments±SEM. In order to obtain relevant comparisons between subtypes, the experimental system is routinely calibrated with reference agonists (oxotremorine-M, pilocarpine, MCN-A343) to measure full and partial agonism as well as to ensure that the system is not under- or over-reporting functional efficacies. The radioligand binding assays have earlier been described.

[3] = biological target: T1, human M5 muscarinic receptor; assay: as above; assay type: biochemical
Method: as §1

[4] = biological target: T3, human M4 muscarinic receptor (Homo sapiens, UniProt P08173); assay: as above; assay type: biochemical
T3 construct: purchased PerkinElmer Life and Analytical Sciences, Boston, MA
T3 sequence (P08173 1-479): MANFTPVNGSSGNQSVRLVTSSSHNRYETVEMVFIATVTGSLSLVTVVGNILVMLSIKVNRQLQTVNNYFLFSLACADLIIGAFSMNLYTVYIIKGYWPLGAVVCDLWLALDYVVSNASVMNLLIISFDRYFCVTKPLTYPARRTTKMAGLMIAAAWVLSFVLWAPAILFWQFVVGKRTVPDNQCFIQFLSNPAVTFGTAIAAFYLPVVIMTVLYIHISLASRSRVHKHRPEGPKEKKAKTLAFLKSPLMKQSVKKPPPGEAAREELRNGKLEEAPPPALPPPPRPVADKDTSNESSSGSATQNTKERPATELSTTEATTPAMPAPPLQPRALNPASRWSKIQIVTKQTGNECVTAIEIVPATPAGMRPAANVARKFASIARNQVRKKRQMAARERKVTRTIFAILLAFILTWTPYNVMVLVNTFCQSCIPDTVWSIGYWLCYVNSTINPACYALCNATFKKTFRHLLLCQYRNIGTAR
Method: as §1

M4AChR = biological target: T4, M4AChR (Homo sapiens, UniProt P08173); assay: Competitive radioligand binding
T4 sequence (P08173 1-479): T3 sequence (P08173 1-479)

M3AChR = M3AChR (Homo sapiens, UniProt P20309); assay: Competitive radioligand binding
Chain of M3AChR (P20309 whole entry): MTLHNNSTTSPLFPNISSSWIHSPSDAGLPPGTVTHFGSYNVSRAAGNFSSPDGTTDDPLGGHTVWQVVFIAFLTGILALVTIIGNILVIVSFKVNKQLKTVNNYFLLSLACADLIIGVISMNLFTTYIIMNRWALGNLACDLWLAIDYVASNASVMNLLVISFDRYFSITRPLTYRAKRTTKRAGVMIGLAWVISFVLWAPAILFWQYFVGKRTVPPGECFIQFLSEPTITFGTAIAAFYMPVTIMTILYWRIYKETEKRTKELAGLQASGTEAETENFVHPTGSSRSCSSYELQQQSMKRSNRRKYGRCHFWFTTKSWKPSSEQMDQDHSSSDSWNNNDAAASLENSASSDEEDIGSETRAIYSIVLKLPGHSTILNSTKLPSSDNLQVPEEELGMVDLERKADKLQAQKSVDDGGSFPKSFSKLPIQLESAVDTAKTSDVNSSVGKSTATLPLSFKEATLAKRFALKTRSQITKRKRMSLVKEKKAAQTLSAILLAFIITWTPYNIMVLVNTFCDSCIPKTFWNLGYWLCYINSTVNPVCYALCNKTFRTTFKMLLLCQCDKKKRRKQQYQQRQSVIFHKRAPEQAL

M1AChR = biological target: T5, M1AChR (Homo sapiens, UniProt P11229); assay: Competitive radioligand binding
T5 sequence (P11229 1-460): T2 sequence (P11229 1-460)

[5] = antagonist mode, maximal inhibition of EC90 agonist response

SMILES	Emetic events (vomiting), monkeys with emesis (monkeys)	Rel pEC50 ([1]; agonist mode, negative log-transformed)	% Emax ([1]; agonist mode)	Rel pIC50 ([1]; antagonist mode, negative log-transformed)	% Inhibition ([1]; antagonist mode)	EC50 [2]	IC50 [2]	% Inhibition [2, 5]	Emax ([2]; percentage of maximum 100 μM oxotremorine-M signal)	EC50 [3]	Emax [3]	IC50 ([3]; antagonist mode against EC90 of agonist, negative log-transformed, read-out: Rel pIC50 (converted))	% Inhibition [3, 5]	EC50 [4]	Emax [4]	IC50 [4]	% Inhibition [4, 5]	Ki (M4AChR)	Ki (M3AChR)	Ki (M1AChR)
CCCCSc1nsnc1[C@H]1CN2CCC[C@H]1C2 [BuTAC, (5R,6R)-6-(3-butylthio-1,2,5-thiadiazol-4-yl)-1-azabicyclo[3.2.1]octane]	7/7	7.63 ± 7.41 M	10.77 ± 10.87%	8.29 ± 8.16 M	96.31 ± 3.87%															
CCCSc1nsnc1[C@H]1CN2CCC[C@H]1C2 [PTAC, (5R,6R) 6-(3-propylthio-1,2,5-thiadiazol-4-yl)-1-azabicyclo-[3.2.1]-octane]						0.372 nM	0.933 nM	54.3 ± 1.70%	38.1 ± 9.94%	15.5 nM	15.4 ± 2.73%	107 nM	87.3 ± 7.07%	1.48 nM	19.4 ± 0.52%	24.5 nM	92.7 ± 7.49%	0.282 nM	0.398 nM	1.05 nM
